According to article PMC7824033, “Flavones, Flavonols, and Glycosylated Derivatives—Impact on Candida albicans Growth and Virulence, Expression of CDR1 and ERG11, Cytotoxicity” (Pharmaceuticals, 2020):
Converted amounts (≈) assume the structure as drawn. “Also recorded” adds a separate entry of the source. Where two headings read alike, the source gives them in different places.

Assays:
[1] = system: C. albicans 475/15 hyphal growth; test: Anti-hyphal forming activity; type: cell-based, Candida albicans; conditions: MIC, 4 h, YPD + 10% FBS
Procedure: C. albicans 475/15 cells were incubated with MIC of tested compounds in YPD + 10% FBS, at 37 °C, for 4 h. Cells were examined under microscope (Nikon Eclipse TS2, Amsterdam, Netherland) and number of cells, growing in the yeast or hyphal and germ tube formations, was determined. Assay was performed in triplicate and percentage of hyphae was determined.

3T3-L1 pre-adipocytes = conditions: up to 100 μM; cited from earlier work
[2] = Cytotoxicity, Sulforhodamine B assay; conditions: pig
Procedure: (§1) Preparation of PLP2 cell line was performed with freshly harvested porcine liver supplied from a local slaughter house. Tissues from the liver were washed in Hank’s balanced salt solution comprising 100 U/mL penicillin and 100 μg/mL streptomycin and split into 1 × 1 mm^3 explants. Some of the prepared explants were set in 25 cm^2 tissue flasks in Dulbecco’s modified Eagle’s medium (DMEM) with 10% fetal bovine serum (FBS), 2 mM nonessential amino acids, 100 U/mL penicillin, and […] streptomycin, and incubation was conducted at 37 °C with 5% CO2 in a humidified atmosphere. The fresh medium was added every 2 days. Cultivation of the cells was further conducted with direct observation by the phase contrast microscope every 2–3 days. Before confluence was achieved, cells were subcultured and seeded in 96-well plates at a density of 1.0 × 10^4 cells per well and cultivated in DMEM supplemented with 10% FBS, 100 U/mL penicillin, and 100 μg/mL streptomycin. Previously described Sulforhodamine B assay was used for the determination of cytotoxicity. The obtained results were defined as GI50 values corresponding to the compound concentration that inhibits 50% of the net cell growth. Ellipticine was used as a positive control.

porcine liver cells PLP2 = test: Cytotoxicity, Sulforhodamine B assay
Procedure: as §1

[3] = system: C. albicans 475/15 biofilm formation; test: Inhibition of biofilm formation (crystal violet); type: cell-based, Candida albicans
Procedure: Potential of selected compounds to interfere with C. albicans 475/15 biofilm formation was investigated as previously described. Briefly, C. albicans 475/15 was incubated with serial dilution of the compounds (MIC and subMICs) in YPD medium, in 96-well microtiter plates with adhesive bottom (Sarstedt, Nümbrecht, Germany), at 37 °C for 24 h. After incubation, wells were washed twice with sterile PBS and methanol was added into each well. After fixation, methanol was discarded, and the plate was air dried. Formed biofilms were stained with 0.1% crystal violet (Bio-Merieux, Craponne, France) for 30 min. The plate was gently washed under the tap of water and air dried. The stain bound to the remaining biofilms was dissolved with ethanol (96%, Zorka, Šabac, Serbia). Absorbance was read on a Multiskan™ FC Microplate Photometer, Thermo Scientific™. The percentage of inhibition of biofilm formation was calculated by the formula:[(A620control − A620sample)/A620control] × 100

CDR1 [4] = test: Expression of CDR1 (qPCR); type: cell-based, Candida albicans; conditions: treatment with MIC
Procedure: Total RNA was isolated as described by Sanglard et al. with some modifications. C. albicans 475/15 was grown with agitation at 30 °C in YEPD until OD540 = 0.4. C. albicans cells were incubated with MIC of compounds in YEPD at 30 °C with agitation for 30 min. Cells were centrifuged (4600 rpm, 4 °C for 5 min (Rotanata 460 R, Hettich, Tuttlingen, Germany)) and the pellet was resuspended in 300 µL of RNA buffer (0.1 M Tris-HCl pH 7.5, 0.1M LiCl, 10mM EDTA, 0.5% SDS). The pellet was homogenized with 200 µL of DEPC treated glass beads and 300 µL of Phenol:Chloroform:Isoamyl Alcohol (Sigma-Aldrich, Darmstadt, Germany) in Precellys Evolution tissue homogenizer (Bertion instruments, Montigny-le-Bretonneux, France) at 4500 rpm for 5 s. After centrifugation (14,000 rpm, 4 °C, 1 min (Universal 32 R, Hettich, Tuttlingen, Germany)) 200 µL of supernatant was vortexed with 250 µL of Phenol:Chloroform:Isoamyl Alcohol for 10 s. Samples were centrifuged (14,000 rpm, 4 °C, 1 min) and 200 µL of supernatant was transferred to new tubes, 400 µL of ice-cold 99% ethanol was added to each tube, and they were kept on dry ice for 10 min. Samples were centrifuged (14,000 rpm, 4 °C, 2 min), pellet was washed with ethanol (70%), left to dry at room temperature, after which it was dissolved in 50 µL of DEPC treated water. Nanodrop (ND-1000, Witec AG, Sursee, Switzerland) was used for determination of concentration and purity of samples. RNA was stored at −80°C.
Amount of 10 µg RNA was incubated with 5 µL of DNAse buffer and 1 µL of DNAse at 37 °C for 30 min (DNA-free™ DNA Removal Kit, Ambion, Bleiswijk, Netherlands). After addition of DNAse inactivation reagent tubes were kept at room temperature with occasional vortexing for 5 min. Samples were centrifuged (14,000 rpm, 4°C, 2 min) and the concentration and quality of supernatant were analyzed on Nanodrop (ND-1000, Witec AG, Sursee, Switzerland).
Synthesis of cDNA was done with a Transcriptor High Fidelity cDNA synthesis kit (Roche). RNA (1 µg) was incubated with 60 µM random hexamer primers, in 11.4 µL of total sample volume, at 65 °C for 10 min. The mixture of Transcriptase reaction buffer 5×, Deoxynucleotide mix, DTT, Protector RNAse inhibitor, and Transcriptor High Fidelity Reverse Transcriptase was added to each tube according to manufacturer instructions. Synthesis of cDNA was completed by incubating the mixture at 50 °C for 30 min and 85 °C for 5 min (Peqstar thermocycler, Peqlab, Erlangen, Germany).
Wells of MicroAmp Fast 96-Well Reaction plate ((0.1 mL), Applied biosystems, Waltham, MA, USA) were incubated with 10 µL of mixture (cDNA, 2× MasterMix, primers, probe (Table 3), and water). Analysis was performed in StepOnePlus Real Time PCR system with relative standard curve method. Expression levels of CDR1 and ERG11 were normalized to expression of ACT1.

C. albicans 475/15 [5] = system: C. albicans 475/15; parameters: method as in PMID 28827996; conditions: previously published; cited from earlier work
ERG11 = conditions: identical assay, previously published; cited from earlier work
C. albicans 475/15 [6] = test: Microdilution assay, MIC and MFC; type: cell-based; conditions: Candida albicans, C. albicans 475/15, mean ± SD of three replicates; for MFC: read-out: MFC; for MIC: read-out: MIC
Excerpt: (§2) C. albicans was isolated from oral cavities of patients at ENT Clinic, Clinical Hospital Centre Zvezdara, Belgrade, Serbia after obtaining informed written consent and identified by using CHROMagar plates (Biomerieux, Craponne, France). Strains were maintained on Sabouraud Dextrose Agar (Merck, Darmstadt, Germany) and are deposited at the Mycological Laboratory, Department of Plant Physiology, Institute for Biological Research “Siniša Stanković”, National Institute of Republic of Serbia, University of Belgrade. The collection of samples was approved by the Ethical Committee (Office for Human Research Protection, Zvezdara University Medical Center, Belgrade, Serbia, document issued 26 October 2016).
(§3) Microdilution assay with some modification was used for determination of minimum inhibitory (MIC) and minimum fungicidal concentrations (MFC). Yeast cultures were adjusted to 1.0 × 10^5 CFU/per well with sterile PBS (Phosphate buffered saline, pH 7.4). The 96-well microtiter plates with serially diluted flavonoids (concentration range 0.3–75 µg/mL) in liquid broth were incubated at 37 °C for 24 h. After incubation, MIC and MFC were determined. The lowest concentrations that were not inducing microscopically observed growth were considered as MIC. For microscopic determination of growth, we used inverted microscope Nikon Eclipse TS2 (Amsterdam, Netherland) and examined the fungal growth in the wells of 96-well microtiter plates compared to the control (untreated yeast cells). MFC values were determined as concentrations without visible growth after serial sub-cultivation of 10 µL of samples at 37 °C for 24 h. Ketoconazole and amphotericin B (SigmaAldrich, Darmstadt, Germany) were used as an antifungal control. The tested flavonoids were obtained from Extrasynthese, Rhone, France.

C. albicans 10/15 = test: Microdilution assay, MIC and MFC; type: cell-based; conditions: Candida albicans, C. albicans 10/15, mean ± SD of three replicates; for MFC: read-out: MFC; for MIC: read-out: MIC
Excerpt: as §2, §3

C. albicans 527/14 = test: Microdilution assay, MIC and MFC; type: cell-based; conditions: Candida albicans, C. albicans 527/14, mean ± SD of three replicates; for MFC: read-out: MFC; for MIC: read-out: MIC
Excerpt: as §2, §3

C. albicans 13/15 = test: Microdilution assay, MIC and MFC; type: cell-based; conditions: Candida albicans, C. albicans 13/15, mean ± SD of three replicates; for MFC: read-out: MFC; for MIC: read-out: MIC
Excerpt: as §2, §3

CDR1 [7] = conditions: identical assay, previously published; cited from earlier work
S. aureus efflux = system: S. aureus efflux; parameters: method as in PMID 25961825; conditions: S. aureus; cited from earlier work
C. albicans biofilm = conditions: 625–5000 µg/mL; C. albicans ATCC 90028; cited from earlier work
Candida albicans = test: Microdilution assay, MIC (strain not named); type: cell-based; conditions: C. albicans, this study, strain not given, read-out: minimum inhibitory concentration (MIC)
Excerpt: as §2, §3

[8] = system: HUVE (human umbilical vein endothelial) cells; conditions: read-out: LC50; cited from earlier work
[9] = system: TIG-1 (human lung embryonic fibroblasts); conditions: read-out: LC50; TIG-1 cells; cited from earlier work
C. albicans = conditions: cited from earlier work

For `O=c1cc(-c2ccc(O)cc2)oc2cc(O[C@@H]3O[C@H](CO)[C@@H](O)[C@H](O)[C@H]3O)cc(O)c12` [Apigetrin, apigetrin], which “reduction of hyphal growth (words)” value [1] is on record?
The value was “lowest number of cells growing in the hyphal form; also recorded: strongest anti-hyphal potential”.

What about the “cytotoxicity” value (3T3-L1 pre-adipocytes) of the same compound?
The value was “does not induce cytotoxicity”.

And the GI50 [2]?
The GI50 was 90 ± 1 µg/mL (≈ 208 µM).

And the “cytotoxic effect” value (porcine liver cells PLP2; PLP2 cells)?
Its value is “some cytotoxic effect”.

And the “antibiofilm activity” value ([3]; MIC and subMICs)?
The value was “notably lowered”.

And the “inhibition of biofilm formation” value ([3]; compound applied at MIC/2)?
Its value is > 60%.

What about the “reduction of biofilm formation” value ([3]; concentration not given) of the same compound?
Its value is “more than 50%”.

What about the “impact on CDR1 expression” value (CDR1 [4]) of the same compound?
Its value is “downregulated; also recorded: inhibitory impact; also recorded: lowering CDR1 expression”.

What about the “CDR1 expression level, log2FC” value (CDR1 [4]; 30 min, normalized to ACT1) of the same compound?
Its value is < −1 log2FC.

And the MIC (C. albicans 475/15 [5])?
The MIC was 50 µg/mL (≈ 116 µM).

Which results are given for `CC(=O)N1CCN(c2ccc(OCC3COC(Cn4ccnc4)(c4ccc(Cl)cc4Cl)O3)cc2)CC1` (stereo not drawn) [Ketoconazole, reference compound]?
impact on ERG11 expression (words) (ERG11): lack; MFC (C. albicans 475/15 [6]): 6.2 ± 0.1 µg/mL (≈ 11.7 µM); MIC (C. albicans 475/15 [6]): 3.1 ± 0.1 µg/mL (≈ 5.83 µM); MFC (C. albicans 10/15): 50 ± 0.1 µg/mL (≈ 94.1 µM); MIC (C. albicans 10/15): 3.1 ± 0.1 µg/mL (≈ 5.83 µM); MFC (C. albicans 527/14): 6.2 ± 0.1 µg/mL (≈ 11.7 µM); MIC (C. albicans 527/14): 3.1 ± 0.1 µg/mL (≈ 5.83 µM); MFC (C. albicans 13/15): 50 ± 0.2 µg/mL (≈ 94.1 µM); MIC (C. albicans 13/15): 1.6 ± 0.2 µg/mL (≈ 3.01 µM); impact on CDR1 expression (CDR1 [7]): lack

With `O=c1cc(-c2ccc(O)c(O)c2)oc2cc(O)cc(O)c12` [Luteolin, luteolin] as the compound, how does the “IC50, efflux inhibition” value (S. aureus efflux) read?
Its value is 75 µg/mL (≈ 262 µM).

And the “activity towards biofilm” value (C. albicans biofilm)?
Its value is “inefficient”.

What about the MIC (Candida albicans) of the same compound?
The MIC was 37.5 µg/mL (≈ 131 µM).

What about the CC50 [8] of the same compound?
The CC50 was 57 µM.

What about the CC50 [9] of the same compound?
The CC50 was 107 µM.

And the GI50 [2]?
The GI50 was > 400 µg/mL.

And the “cytotoxic effect” value (porcine liver cells PLP2)?
Its value is “did not exhibit cytotoxic effect”.

And the MFC (C. albicans 475/15 [6])?
Its MFC is 75 ± 2 µg/mL (≈ 262 µM).

And the MIC (C. albicans 475/15 [6])?
Its MIC is 37.5 ± 1 µg/mL (≈ 131 µM).

And the MFC (C. albicans 10/15)?
The MFC was 75 ± 2 µg/mL (≈ 262 µM).

And the MIC (C. albicans 10/15)?
Its MIC is 37.5 ± 1 µg/mL (≈ 131 µM).

What about the MFC (C. albicans 527/14) of the same compound?
The MFC was 75 ± 20 µg/mL (≈ 262 µM).

And the MIC (C. albicans 527/14)?
Its MIC is 37.5 ± 1 µg/mL (≈ 131 µM).

What about the MFC (C. albicans 13/15) of the same compound?
Its MFC is 75 ± 2 µg/mL (≈ 262 µM).

What about the MIC (C. albicans 13/15) of the same compound?
The MIC was 37.5 ± 1 µg/mL (≈ 131 µM).

What about the MIC (C. albicans; clinical isolates and C. albicans 10231) of the same compound?
The MIC was > 83 µg/mL.

And the MIC (C. albicans; different C. albicans strains, ref 13)?
Its MIC is 3100 µg/mL (≈ 10800 µM).

What about the MIC (C. albicans; different C. albicans strains, ref 15) of the same compound?
The MIC was > 1000 µg/mL.

What about the “impact on CDR1 expression” value (CDR1 [4]) of the same compound?
Its value is “did not exhibit any significant inhibitory potential”.
